Read-outs that look alike come from different tables or passages of the source.
Assays:
[1] = control compounds, 5 μM; cited from earlier work
[2] = target: mTORC (Homo sapiens (Human), UniProt P42345); assay: mTOR kinase inhibition assay; assay type: biochemical
Description: The compounds described herein can be tested against recombinant mTOR (Invitrogen) in an assay containing 50 mM HEPES, pH 7.5, 1 mM EGTA, 10 mM MgCl2, 2.5 mM, 0.01% Tween, 10 μM ATP (2.5 μCi of p-32P-ATP), and 3 μg/mL BSA. Rat recombinant PHAS-1/4EBP1 (Calbiochem; 2 mg/mL) is used as a substrate. Reactions are terminated by spotting onto nitrocellulose, which is washed with 1M NaCl/1% phosphoric acid (approximately 6 times, 5-10 minutes each). Sheets are dried and the transferred radioactivity quantitated by phosphorimaging.
For instance, one can use Invitrogen's LanthaScreen™ Kinase assay to test the inhibitors of mTOR disclosed herein. This assay is a time resolved FRET platform that measures the phosphorylation of GFP labeled 4EBP1 by mTOR kinase. The kinase reaction is performed in a white 384 well microtitre plate. The total reaction volume is 20 ul per well and the reaction buffer composition is 50 mM HEPES pH7.5, 0.01% Polysorbate 20, 1 mM EGTA, 10 mM MnCl2, and 2 mM DTT. In the first step, each well receives 2 ul of test compound in 20% dimethylsulphoxide resulting in a 2% DMSO final concentration. Next, 8 ul of mTOR diluted in reaction buffer is added per well for a 60 ng/ml final concentration. To start the reaction, 10 ul of an ATP/GFP-4EBP1 mixture (diluted in reaction buffer) is added per well for a final concentration of 10 uM ATP and 0.5 uM GFP-4EBP1. The plate is sealed and incubated for 1 hour at room temperature. […] The plate is sealed, incubated for 1 hour at room temperature, and then read on a plate reader set up for LanthaScreen™ TR-FRET. Data is analyzed and IC50s are generated using GraphPad Prism 5.

[3] = target: PI3K α (Homo sapiens (Human), UniProt P42336); assay: PI3K α inhibition assay; assay type: biochemical
Description: (§1) IC50 values are measured using either a standard TLC assay for lipid kinase activity (described below) or a high-throughput membrane capture assay. Kinase reactions are performed by preparing a reaction mixture containing kinase, inhibitor (2% DMSO final concentration), buffer (25 mM HEPES, pH 7.4, 10 mM MgCl2), and freshly sonicated phosphatidylinositol (100 μg/ml). Reactions are initiated by the addition of ATP containing 10 μCi of γ-32P-ATP to a final concentration 10 or 100 μM and allowed to proceed for 5 minutes at room temperature. For TLC analysis, reactions are then terminated by the addition of 105 μl 1N HCl followed by 160 μl CHCl3:MeOH (1:1). The biphasic mixture is vortexed, briefly centrifuged, and the organic phase is transferred to a new tube using a gel loading pipette tip precoated with CHCl3. […] The TLC plates are then dried, exposed to a phosphorimager screen (Storm, Amersham), and quantitated.
(§2) Briefly, the assay is a time resolved FRET assay that indirectly measures PIP3 product formed by the activity of a PI3-K. The kinase reaction is performed in a microtitre plate (e.g., a 384 well microtitre plate). The total reaction volume is approximately 20 ul per well. In the first step, each well receives 2 ul of test compound in 20% dimethylsulphoxide resulting in a 2% DMSO final concentration. Next, approximately 14.5 ul of a kinase/PIP2 mixture (diluted in 1× reaction buffer) is added per well for a final concentration of 0.25-0.3 ug/ml kinase and 10 uM PIP2. The plate is sealed and incubated for 15 minutes at room temperature. To start the reaction, 3.5 ul of ATP (diluted in 1× reaction buffer) is added per well for a final concentration of 10 uM ATP. The plate is sealed and incubated for 1 hour at room temperature. The reaction is stopped by adding 5 ul of Stop Solution per well and then 5 ul of Detection Mix is added per well. The plate is sealed, incubated for 1 hour at room temperature, and then read on an appropriate plate reader. Data is analyzed and IC50s are generated using GraphPad Prism 5.

[4] = target: PI3K β (Homo sapiens (Human), UniProt P42338); assay: PI3K β inhibition assay; assay type: biochemical
Description: as §1, §2

[5] = target: PI3K γ (Homo sapiens (Human), UniProt P48736); assay: PI3K γ inhibition assay; assay type: biochemical
Description: as §1, §2

[6] = target: PI3K δ (Homo sapiens (Human), UniProt O00329); assay: PI3K δ inhibition assay; assay type: biochemical
Description: as §1, §2

[7] = tested on: PC3; assay: Tumor cell line proliferation assay (Alamar Blue); assay type: cell-based; conditions: Homo sapiens, PC-3
Description: The ability of one or more subject compounds to inhibit tumor cell line proliferation is determined according to standard procedures known in the art. For instance, an in vitro cellular proliferation assay can be performed to measure the metabolic activity of live cells. The assay is performed in a 96 well microtiter plate using Alamar Blue reduction. […] A compound disclosed herein is diluted in Tumor Cell Media and added in a 10 ul volume. […] A volume of 10 uL of Alamar Blue reagent is added to each well and plates are incubated for 3 hours at 37 C and 5% CO2. Alamar Blue fluoresce is read at 560Ex/590Em, and IC50 values are calculated using GraphPad Prism 5.

[8] = tested on: PI3K/Akt/mTor signaling; assay: Kinase signaling in blood (phosflow); assay type: cell-based; conditions: anti-CD3 stimulation
Description: PI3K/Akt/mTor signaling is measured in blood cells using the phosflow method (Methods Enzymol. 2007; 434:131-54). The advantage of this method is that it is by nature a single cell assay so that cellular heterogeneity can be detected rather than population averages. This allows concurrent dinstinction of signaling states in different populations defined by other markers. Phosflow is also highly quantitative. To test the effects of the inhibitors disclosed herein, unfractionated splenocytes, or peripheral blood mononuclear cells are stimulated with anti-CD3 to initiate T-cell receptor signaling. The cells are then fixed and stained for surface markers and intracellular phosphoproteins.
Similarly, aliquots of whole blood are incubated for 15 minutes with vehicle (e.g. 0.1% DMSO) or kinase inhibitors at various concentrations, before addition of stimuli to crosslink the T cell receptor (TCR) (anti-CD3 with secondary antibody) or the B cell receptor (BCR) using anti-kappa light chain antibody (Fab′2 fragments). After approximately 5 and 15 minutes, samples are fixed (e.g. with cold 4% paraformaldehyde) and used for phosflow. […] The level of phosphrylation of kinase substrates such as Akt and S6 are then measured by incubating the fixed cells with labeled antibodies specific to the phosphorylated isoforms of these proteins. The population of cells are then analyzed by flow cytometery. […]

[9] = tested on: leukemic cells from p190 transduced cultures; conditions: about 70 mg/kg twice daily; cited from earlier work
[10] = PBS pH 7.4, 24 hours, 37 C; cited from earlier work
[11] = tested on: B6.Sle1z.Sle3z model; conditions: cited from earlier work

Sequence of PI3K γ (P48736 whole entry): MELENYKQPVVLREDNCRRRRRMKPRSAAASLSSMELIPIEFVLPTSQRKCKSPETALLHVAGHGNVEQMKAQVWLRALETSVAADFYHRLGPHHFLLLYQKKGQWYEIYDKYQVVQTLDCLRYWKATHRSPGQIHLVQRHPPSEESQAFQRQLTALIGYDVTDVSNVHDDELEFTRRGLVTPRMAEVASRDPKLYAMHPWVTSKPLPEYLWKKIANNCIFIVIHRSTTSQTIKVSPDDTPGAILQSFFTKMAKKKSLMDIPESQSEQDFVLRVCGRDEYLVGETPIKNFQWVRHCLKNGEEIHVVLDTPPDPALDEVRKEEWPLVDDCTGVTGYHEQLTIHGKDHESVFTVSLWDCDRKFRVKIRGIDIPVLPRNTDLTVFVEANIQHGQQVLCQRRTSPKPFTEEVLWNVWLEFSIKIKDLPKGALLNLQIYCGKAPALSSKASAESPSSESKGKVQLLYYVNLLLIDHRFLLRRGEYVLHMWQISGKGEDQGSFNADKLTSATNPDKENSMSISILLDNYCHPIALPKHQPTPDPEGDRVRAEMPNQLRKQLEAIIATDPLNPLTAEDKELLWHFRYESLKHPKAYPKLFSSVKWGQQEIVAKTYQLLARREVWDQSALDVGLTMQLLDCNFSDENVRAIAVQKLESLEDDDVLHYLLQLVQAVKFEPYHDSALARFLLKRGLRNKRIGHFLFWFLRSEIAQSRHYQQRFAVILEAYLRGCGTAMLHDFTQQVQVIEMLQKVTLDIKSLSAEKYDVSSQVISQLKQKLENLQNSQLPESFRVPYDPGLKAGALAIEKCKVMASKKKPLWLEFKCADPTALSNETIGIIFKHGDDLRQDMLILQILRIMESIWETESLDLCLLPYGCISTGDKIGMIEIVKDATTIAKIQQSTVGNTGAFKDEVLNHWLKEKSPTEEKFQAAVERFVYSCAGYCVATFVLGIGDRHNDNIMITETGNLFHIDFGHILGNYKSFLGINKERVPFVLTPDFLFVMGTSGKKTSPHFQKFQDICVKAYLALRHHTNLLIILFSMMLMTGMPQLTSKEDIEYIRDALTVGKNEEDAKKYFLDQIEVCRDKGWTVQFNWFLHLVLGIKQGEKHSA
Sequence of PI3K α (P42336 whole entry): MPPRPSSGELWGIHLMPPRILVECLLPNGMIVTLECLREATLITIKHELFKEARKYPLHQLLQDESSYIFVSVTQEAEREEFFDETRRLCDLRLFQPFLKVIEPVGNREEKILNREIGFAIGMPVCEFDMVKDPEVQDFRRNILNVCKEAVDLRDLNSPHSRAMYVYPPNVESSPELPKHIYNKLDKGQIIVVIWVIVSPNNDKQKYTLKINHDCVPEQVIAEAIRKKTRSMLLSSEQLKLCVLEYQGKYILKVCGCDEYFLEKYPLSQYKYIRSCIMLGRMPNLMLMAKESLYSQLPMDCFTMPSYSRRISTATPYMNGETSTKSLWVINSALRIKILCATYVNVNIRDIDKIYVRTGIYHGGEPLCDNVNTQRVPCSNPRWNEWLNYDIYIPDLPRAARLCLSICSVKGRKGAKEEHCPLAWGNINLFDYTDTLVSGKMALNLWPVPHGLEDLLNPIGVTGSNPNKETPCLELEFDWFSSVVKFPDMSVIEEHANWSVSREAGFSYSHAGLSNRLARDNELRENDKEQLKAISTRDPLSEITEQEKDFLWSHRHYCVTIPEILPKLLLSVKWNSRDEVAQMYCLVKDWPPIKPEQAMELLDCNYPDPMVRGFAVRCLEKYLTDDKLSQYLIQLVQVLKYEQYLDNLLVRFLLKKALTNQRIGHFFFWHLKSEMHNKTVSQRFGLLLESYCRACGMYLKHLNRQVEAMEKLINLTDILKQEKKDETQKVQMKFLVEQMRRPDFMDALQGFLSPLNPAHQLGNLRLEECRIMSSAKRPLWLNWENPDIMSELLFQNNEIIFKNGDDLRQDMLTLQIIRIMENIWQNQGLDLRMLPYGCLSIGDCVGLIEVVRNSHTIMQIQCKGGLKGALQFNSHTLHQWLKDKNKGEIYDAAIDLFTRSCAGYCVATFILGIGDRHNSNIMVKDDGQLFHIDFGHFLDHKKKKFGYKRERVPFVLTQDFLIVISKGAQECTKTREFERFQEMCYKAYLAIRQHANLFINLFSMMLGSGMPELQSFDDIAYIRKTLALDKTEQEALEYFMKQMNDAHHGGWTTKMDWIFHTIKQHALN
Sequence of PI3K α (P27986 whole entry partner): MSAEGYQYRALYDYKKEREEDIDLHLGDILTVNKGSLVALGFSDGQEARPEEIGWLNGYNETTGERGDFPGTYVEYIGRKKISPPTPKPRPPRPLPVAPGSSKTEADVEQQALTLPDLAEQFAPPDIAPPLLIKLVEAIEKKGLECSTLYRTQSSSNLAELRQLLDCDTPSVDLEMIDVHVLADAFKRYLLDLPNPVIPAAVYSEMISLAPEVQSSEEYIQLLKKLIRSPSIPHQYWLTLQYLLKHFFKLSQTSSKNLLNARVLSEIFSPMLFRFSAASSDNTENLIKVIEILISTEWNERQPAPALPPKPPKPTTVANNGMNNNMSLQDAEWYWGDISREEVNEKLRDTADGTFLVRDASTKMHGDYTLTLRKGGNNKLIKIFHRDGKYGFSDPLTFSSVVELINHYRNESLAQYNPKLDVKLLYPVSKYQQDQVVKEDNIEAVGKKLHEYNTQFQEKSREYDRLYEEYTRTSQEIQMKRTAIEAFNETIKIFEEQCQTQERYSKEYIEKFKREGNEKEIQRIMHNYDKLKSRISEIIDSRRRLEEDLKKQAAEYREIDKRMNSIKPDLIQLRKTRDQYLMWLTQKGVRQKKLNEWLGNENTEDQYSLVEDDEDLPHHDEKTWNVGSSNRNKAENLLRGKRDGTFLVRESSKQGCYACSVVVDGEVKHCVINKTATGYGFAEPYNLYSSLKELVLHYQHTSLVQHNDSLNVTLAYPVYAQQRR
Sequence of PI3K β (P42338 whole entry): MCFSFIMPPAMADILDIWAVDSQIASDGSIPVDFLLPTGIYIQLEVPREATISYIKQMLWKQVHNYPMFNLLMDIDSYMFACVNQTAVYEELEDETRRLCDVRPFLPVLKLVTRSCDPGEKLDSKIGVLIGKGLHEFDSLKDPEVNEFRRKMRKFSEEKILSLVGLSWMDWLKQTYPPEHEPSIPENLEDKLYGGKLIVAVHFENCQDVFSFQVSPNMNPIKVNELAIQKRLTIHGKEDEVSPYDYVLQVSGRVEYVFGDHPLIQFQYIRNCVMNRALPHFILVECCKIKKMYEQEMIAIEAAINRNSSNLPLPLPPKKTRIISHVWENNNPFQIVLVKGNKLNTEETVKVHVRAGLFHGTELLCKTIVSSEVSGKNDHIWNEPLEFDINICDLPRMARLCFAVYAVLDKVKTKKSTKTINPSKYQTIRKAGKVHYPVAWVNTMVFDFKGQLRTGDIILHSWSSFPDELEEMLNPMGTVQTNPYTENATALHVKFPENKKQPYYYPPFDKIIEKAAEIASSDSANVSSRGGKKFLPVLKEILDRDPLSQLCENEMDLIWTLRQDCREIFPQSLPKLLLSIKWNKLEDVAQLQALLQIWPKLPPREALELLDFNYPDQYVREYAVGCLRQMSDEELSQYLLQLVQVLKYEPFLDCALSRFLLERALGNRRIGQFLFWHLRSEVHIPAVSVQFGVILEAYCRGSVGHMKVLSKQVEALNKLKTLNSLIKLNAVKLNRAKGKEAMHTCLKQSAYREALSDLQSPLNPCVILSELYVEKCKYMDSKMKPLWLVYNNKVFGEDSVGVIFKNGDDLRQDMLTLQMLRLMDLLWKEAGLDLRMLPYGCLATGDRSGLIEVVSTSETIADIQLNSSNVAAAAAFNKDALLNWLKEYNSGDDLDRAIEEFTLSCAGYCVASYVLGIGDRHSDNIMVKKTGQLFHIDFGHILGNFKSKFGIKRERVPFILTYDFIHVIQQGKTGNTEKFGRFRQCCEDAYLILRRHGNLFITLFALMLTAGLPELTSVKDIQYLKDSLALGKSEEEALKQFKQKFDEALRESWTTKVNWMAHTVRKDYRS
Sequence of PI3K β (P27986 whole entry partner): as the sequence (P27986 whole entry partner) above
Sequence of PI3K δ (O00329 whole entry): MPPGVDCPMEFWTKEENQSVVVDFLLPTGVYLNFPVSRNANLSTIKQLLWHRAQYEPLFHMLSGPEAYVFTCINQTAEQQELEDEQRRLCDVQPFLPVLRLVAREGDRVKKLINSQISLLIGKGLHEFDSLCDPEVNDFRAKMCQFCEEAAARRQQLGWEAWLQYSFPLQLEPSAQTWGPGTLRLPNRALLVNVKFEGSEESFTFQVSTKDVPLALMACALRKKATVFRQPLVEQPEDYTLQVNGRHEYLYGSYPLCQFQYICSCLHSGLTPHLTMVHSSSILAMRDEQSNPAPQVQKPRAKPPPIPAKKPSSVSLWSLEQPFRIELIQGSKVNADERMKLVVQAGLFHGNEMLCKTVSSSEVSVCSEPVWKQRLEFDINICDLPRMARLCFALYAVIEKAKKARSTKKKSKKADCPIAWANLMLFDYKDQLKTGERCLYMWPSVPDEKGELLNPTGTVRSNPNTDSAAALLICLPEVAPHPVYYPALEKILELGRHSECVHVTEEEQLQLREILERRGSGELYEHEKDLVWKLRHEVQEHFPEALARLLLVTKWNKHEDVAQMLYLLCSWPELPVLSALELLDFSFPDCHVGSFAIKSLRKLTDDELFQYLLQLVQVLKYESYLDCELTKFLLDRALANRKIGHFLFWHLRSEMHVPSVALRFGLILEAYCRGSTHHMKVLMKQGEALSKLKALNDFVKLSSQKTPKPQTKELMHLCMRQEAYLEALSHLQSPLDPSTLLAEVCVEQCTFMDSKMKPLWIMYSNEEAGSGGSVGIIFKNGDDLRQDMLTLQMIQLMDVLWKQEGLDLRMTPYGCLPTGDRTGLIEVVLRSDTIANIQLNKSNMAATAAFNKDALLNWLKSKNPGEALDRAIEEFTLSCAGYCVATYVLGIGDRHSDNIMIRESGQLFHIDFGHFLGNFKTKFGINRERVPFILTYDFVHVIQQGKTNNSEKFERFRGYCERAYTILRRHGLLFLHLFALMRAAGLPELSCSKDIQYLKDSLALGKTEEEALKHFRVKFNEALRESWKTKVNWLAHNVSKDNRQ
Sequence of PI3K δ (P27986 whole entry partner): as the sequence (P27986 whole entry partner) above

Compound | IC50 ([2]; Table 1, read-out: mTORC IC50) [nM] | IC50 ([3]; Table 1, read-out: PI3K α IC50) [nM] | IC50 ([4]; Table 1, read-out: PI3K β IC50) [nM] | IC50 ([5]; Table 1, read-out: PI3K γ IC50) [nM] | IC50 ([6]; Table 1, read-out: PI3K δ IC50) [nM] | also measured
CCCOc1cc(N)ccc1C(=O)OCCN(CC)CC [propoxycaine] |  |  |  |  |  | plasma stability [1]: low plasma stability
COc1cc(Cl)c2[nH]c(-c3nn(C4CCOCC4)c4ncnc(N)c34)cc2c1 [Compound 67] | > 500 | > 500 | > 500 | > 500 | > 500 | 
CC(C)n1nc(-c2cc3c(Cl)c(O)ccc3[nH]2)c2c(N)ncnc21 [Compound 22] |  |  |  |  |  | IC50 ([7]; Table 1, PC3 cells, read-out: PC3 proliferation): < 500 nM
CC(=O)N1CCC(n2nc(-c3cc4cc(O)ccc4[nH]3)c3c(N)ncnc32)CC1 [Compound 30] | < 25 | > 500 | > 500 |  | > 500 | 
CN1CCN(C2CC(n3nc(-c4cc5cc(O)ccc5[nH]4)c4c(N)ncnc43)C2)CC1 (centres unmarked) [Compound 52] | < 500 | > 500 | > 500 | > 500 | < 500 | 
CC(C)[N+](C)(CCOC(=O)C1c2ccccc2Oc2ccccc21)C(C)C [propantheline] |  |  |  |  |  | plasma stability [1]: intermediate plasma stability
CCOC(=O)Cn1nc(-c2cc3cc(O)ccc3[nH]2)c2c(N)ncnc21 [Compound 28] | < 500 | > 500 | > 500 |  | > 500 | 
Nc1ncnc2c1c(-c1cc3cc(O)cc(Cl)c3[nH]1)nn2C1CCOCC1 [Compound 68] | < 5 | < 500 | > 500 | < 50 | < 25 | 
CC(=O)N1CCC(n2nc(-c3cc4c(Cl)ccc(O)c4[nH]3)c3c(N)ncnc32)CC1 [Compound 69] | < 5 | > 500 | > 500 | > 500 | < 500 | 
CNC(=O)CCn1nc(-c2cc3cc(O)ccc3[nH]2)c2c(N)ncnc21 [Compound 43] | > 500 | > 500 | > 500 |  | > 500 | 
CC(C)n1nc(-c2cc3cccc(Cl)c3[nH]2)c2c(N)ncnc21 [Compound 50] | < 50 | > 500 | > 500 | < 500 | < 500 | 
CO[C@H]1C[C@@H]2CC[C@@H](C)[C@@](O)(O2)C(=O)C(=O)N2CCCC[C@H]2C(=O)O[C@H]([C@H](C)C[C@@H]2CC[C@@H](O)[C@H](OC)C2)CC(=O)[C@H](C)/C=C(\C)[C@@H](O)[C@@H](OC)C(=O)[C@H](C)C[C@H](C)/C=C/C=C/C=C/1C [rapamycin] |  |  |  |  |  | Akt phosphorylation [8]: enhances; S6 phosphorylation [8]: inhibits
Nc1ncnc2c1c(-c1cc3cccc(Cl)c3[nH]1)nn2C1CCOCC1 [Compound 51] | < 50 | > 500 | > 500 | < 500 | < 500 | 
COc1cccc2cc(-c3nn(C4CCN(C(=O)C5CC5)CC4)c4ncnc(N)c34)[nH]c12 [Compound 66] | > 500 | > 500 | > 500 | > 500 | > 500 | 
CC(=O)N1CCC(n2nc(-c3cc4cc(O)cc(Cl)c4[nH]3)c3c(N)ncnc32)CC1 [Compound 70] | < 5 | < 500 | > 500 | < 100 | < 25 | 
CC(C)N1CCC(n2nc(-c3cc4cccc(O)c4[nH]3)c3c(N)ncnc32)CC1 [Compound 64] | < 25 | > 500 | > 500 | < 500 | < 500 | 

Compound | IC50 ([2]; Table 1, read-out: mTORC IC50) [nM] | IC50 ([3]; Table 1, read-out: PI3K α IC50) [nM] | IC50 ([4]; Table 1, read-out: PI3K β IC50) [nM] | IC50 ([5]; Table 1, read-out: PI3K γ IC50) [nM] | IC50 ([6]; Table 1, read-out: PI3K δ IC50) [nM] | also measured
Nc1ncnc2c1c(-c1cc3cc(O)ccc3[nH]1)nn2C1CCOCC1 [Compound 42] | < 5 | > 500 | > 500 |  | < 100 | 
Nc1ncnc2c1c(-c1cc3cc(O)ccc3[nH]1)nn2C1CC(N2CCOCC2)C1 (centres unmarked) [Compound 49] | < 10 | > 500 | > 500 | < 500 | < 500 | 
COc1cccc2cc(-c3nn(C4CCOCC4)c4ncnc(N)c34)[nH]c12 [Compound 63] | < 5 | < 500 | > 500 | < 25 | < 25 | 
CC(C)N1CCC(n2nc(-c3cc4c(Cl)ccc(O)c4[nH]3)c3c(N)ncnc32)CC1 [Compound 71] | < 100 | > 500 | > 500 | > 500 | > 500 | 
Nc1ncnc2c1c(-c1cc3cc(O)ccc3[nH]1)nn2C1CCCCC1 [Compound 26] | < 10 | > 500 | > 500 | < 500 | < 100 | 
COc1ccc(Cl)c2cc(-c3nn(C4CCOCC4)c4ncnc(N)c34)[nH]c12 [Compound 61] | < 25 | > 500 | > 500 | > 500 | > 500 | 
Cc1ccc(NC(=O)c2ccc(CN3CCN(C)CC3)cc2)cc1Nc1nccc(-c2cccnc2)n1 [imatinib] |  |  |  |  |  | leukemogenesis [9]: delay but not cure leukemogenesis
CC(=O)N1CCC(n2nc(-c3cc4ccc(O)cc4[nH]3)c3c(N)ncnc32)CC1 [Compound 65] | < 10 | < 50 | > 500 | < 25 | < 25 | 
Nc1ncnc2c1c(-c1cc3c(Cl)cccc3[nH]1)nn2C1CCOCC1 [Compound 48] | < 50 | > 500 | > 500 | > 500 | > 500 | 
CNC(=O)Nc1nc2ccc(-c3nn(C4CCN(C(C)=O)CC4)c4ncnc(N)c34)cc2s1 [Compound 23] |  |  |  |  |  | IC50 ([2]; Table 2, compound numbers of Table 3, read-out: IC50 results mTORC): ≤ 50 nM; IC50 ([3]; Table 2, compound numbers of Table 3, read-out: IC50 results PI3K alpha): ≤ 50 nM; IC50 ([4]; Table 2, compound numbers of Table 3, read-out: IC50 results PI3K beta): ≤ 100 nM; IC50 ([5]; Table 2, compound numbers of Table 3, read-out: IC50 results PI3K gamma): ≤ 50 nM; IC50 ([6]; Table 2, compound numbers of Table 3, read-out: IC50 results PI3K delta): ≤ 50 nM; IC50 ([7]; Table 2, compound numbers of Table 3, read-out: IC50 results PC3 proliferation): > 1000 nM
O=C(O)CCCc1ccc(N(CCCl)CCCl)cc1 [chlorambucil] |  |  |  |  |  | chemical stability [10]: largely hydrolyzed over the course of 24 hours
Nc1ncnc2c1c(-c1cc3cccc(O)c3[nH]1)nn2C1CCOCC1 [Compound 62] | < 5 | > 500 | > 500 | > 500 | < 100 | 
CO[C@H]1C[C@@H]2CC[C@@H](C)[C@@](O)(O2)C(=O)C(=O)N2CCCC[C@H]2C(=O)O[C@H]([C@H](C)C[C@@H]2CC[C@@H](OCCO)[C@H](OC)C2)CC(=O)[C@H](C)/C=C(\C)[C@@H](O)[C@@H](OC)C(=O)[C@H](C)C[C@H](C)/C=C/C=C/C=C/1C [RAD001] |  |  |  |  |  | lupus symptoms [11]: ameliorate lupus symptoms
Cc1nccn1CCn1nc(-c2cc3cc(O)ccc3[nH]2)c2c(N)ncnc21 [Compound 44] | < 100 | > 500 | > 500 |  | > 500 | 
Nc1ncnc2c1c(-c1cc3cc(O)ccc3[nH]1)nn2C1CCN(C(=O)C2CC2)CC1 [Compound 31] | < 25 | > 500 | > 500 |  | < 500 | 
Nc1ncnc2c1c(-c1cc3cccc(O)c3[nH]1)nn2C1CCN(C(=O)C2CC2)CC1 [Compound 41] | < 10 | > 500 | > 500 | < 50 | > 500 | 

— patent US9828378B2, “Kinase inhibitors and methods of use” (Intellikine LLC, priority 2008, dated 2017)
